Converted amounts (≈) assume the structure as drawn. Where only a bound is given, the exact number is not on record here.

Experiment [1] concerns E. coli NCTC 13353 (CTX-M15, OXA-1). Put plainly: Antibacterial activity, MIC by agar dilution (CLSI). Type of experiment: cell-based. To be noted: Escherichia coli, NCTC13353, Table 2; E. Coli NCTC 13353 (CTX-M15, OXA-1); read-out: MIC. Put shortly: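 CLSI agar dilution on Mueller Hinton agar containing doubling compound dilutions, inoculated at about 10^4 CFU/spot from fresh cultures. Plates were incubated 18 h at 37 °C in ambient air before growth scoring. MIC is reported in mcg/ml.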

Experiment [2] relates to K. pneumoniae H521 (KPC, SHV, TEM). The experiment is described as above. Format: cell-based. Particulars: Klebsiella pneumoniae, Table 2; K. pneumoniae H521 (KPC, SHV, TEM); read-out: MIC. The essentials:
(§1)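 Agar dilution per CLSI on Mueller Hinton agar with doubling compound dilutions, about 10^4 CFU/spot by multipoint inoculator. Plates incubated 16-20 h at 35±2° C in ambient air; procedure also gives 37° C for 18 h. MIC (mcg/ml) scored as growth or no growth.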

In experiment [3] the test system is K. pneomoniae S48 (NDM, SHV, TEM). The experiment is described as above. Format: cell-based, K. pneumoniae. To be noted: Klebsiella pneumoniae; Table 2; K. pneomoniae S48 (NDM, SHV, TEM); read-out: MIC. Put shortly:
as §1

Experiment [4] addresses T1, Class A beta-lactamase, K. pneumoniae ATCC 700603 (SHV 18) (Klebsiella pneumoniae, UniProt P0AD64, E235K/G234A/R39S).
T1 construct: preincubated mixture of crude enzyme and the agents; endogenous in cells; host or cells: K. pneumoniae ATCC 700603
Put plainly: biochemical. Put shortly:
(§2)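 Crude enzyme preincubated with inhibitor 10 min at 37 °C, then nitrocefin (100 uM) added for 5 min. Absorbance read at 485 nm; IC50 obtained from sigmoidal dose-response fit of absorbance versus concentration.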

The subject of experiment [5] is T2, Class C beta-lactamase, E. coli M50 (CMY/DHA).
T2 construct: no borders, tags or purification printed
Format: biochemical. Particulars: read-out: Beta-lactamase enzyme inhibition IC50. The method, then: Determination of enzyme inhibition activity: Concentration of the inhibitor required to inhibit 50% of enzymatic activity was measured by adding a chromogenic substrate, Nitrocefin (100 uM, 5 min) to the preincubated mixture of crude enzyme and the agents (37° C., 10 min). Absorbance was measured at 485 nm by UV-spectrophotometer. The IC50 was calculated by plotting absorbance against concentration through Sigmoidal dose response curve using Graph Pad software.
The enzyme inhibition was expressed as IC50.

Experiment [6] deals with T3, Class D beta-lactamase, A. baumannii NCTC 13301 (OXA 23) (Acinetobacter baumannii, UniProt Q9L4P2).
T3 construct: preincubated mixture of crude enzyme and the agents; endogenous in cells; host or cells: A. baumannii NCTC 13301
Put plainly: Beta-lactamase enzyme inhibition (nitrocefin, crude enzyme). Format: biochemical. To be noted: Class D A. baumannii NCTC 13301 (OXA 23); read-out: Beta-lactamase enzyme inhibition IC50. The essentials:
as §2

T1 sequence (P0AD64 22-286 R39S/G234A/E235K): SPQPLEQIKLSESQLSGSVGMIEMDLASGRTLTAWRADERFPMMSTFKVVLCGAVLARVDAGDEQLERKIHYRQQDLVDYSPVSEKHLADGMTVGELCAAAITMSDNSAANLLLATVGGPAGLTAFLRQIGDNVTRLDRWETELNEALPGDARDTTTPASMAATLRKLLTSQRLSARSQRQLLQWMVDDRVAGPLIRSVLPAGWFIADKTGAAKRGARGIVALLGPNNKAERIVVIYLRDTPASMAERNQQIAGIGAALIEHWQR
T3 sequence (Q9L4P2 18-273): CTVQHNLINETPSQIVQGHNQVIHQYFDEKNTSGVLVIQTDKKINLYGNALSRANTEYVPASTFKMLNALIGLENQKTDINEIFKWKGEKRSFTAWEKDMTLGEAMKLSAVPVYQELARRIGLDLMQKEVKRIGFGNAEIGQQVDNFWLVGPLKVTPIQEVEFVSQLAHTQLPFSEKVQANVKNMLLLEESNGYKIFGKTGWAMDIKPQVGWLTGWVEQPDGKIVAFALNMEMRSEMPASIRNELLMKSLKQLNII

As for `C[C@H](N)COc1ccc(CC(=O)NNC(=O)[C@@H]2CC[C@@H]3CN2C(=O)N3OS(=O)(=O)O)cc1` [Example 43, (2S,5R)-sulfuric acid mono-[2-(N′-{2-[4-((S)-2-amino-propoxy)-phenyl]-acetyl}-hydrazinocarbonyl)-7-oxo-1,6-diaza-bicyclo[3.2.1]oct-6-yl]ester], the minimum inhibitory concentration (MIC) in experiment [1] was 0.5 µg/mL (≈ 1.06 µM); in experiment [2], 2 µg/mL (≈ 4.24 µM); in experiment [3] it was 0.5 µg/mL (≈ 1.06 µM). Moreover, the IC50 in experiment [4] amounted to 386 nM; in experiment [5], 37 nM; in experiment [6], 522 nM.
On to `C[C@H](N)COc1ccc(CC(=O)NNC(=O)[C@@H]2CC[C@@H]3CN2C(=O)N3OS(=O)(=O)O)c(F)c1` [Example 44, (2S,5R)-sulfuric acid mono-[2-(N′-{2-[2-fluoro-4-((S)-2-amino-propoxy)-phenyl]-acetyl}-hydrazinocarbonyl)-7-oxo-1,6-diaza-bicyclo[3.2.1]oct-6-yl]ester], for which the MIC came to 1 µg/mL (≈ 2.04 µM) in experiment [1], 2 µg/mL (≈ 4.09 µM) in experiment [2] and 1 µg/mL (≈ 2.04 µM) in experiment [3]. The figures for the IC50 in experiment [4], in experiment [5] and in experiment [6] were 58 nM, 31 nM and 561 nM, respectively.
Consider `CC(C)[C@@H](N)COc1ccc(CC(=O)NNC(=O)[C@@H]2CC[C@@H]3CN2C(=O)N3OS(=O)(=O)O)c(F)c1` [Example 46, (2S,5R)-sulfuric acid mono-[2-(N′-{2-[2-fluoro-4-((R)-2-amino-3-methyl-butoxy)-phenyl]-acetyl}-hydrazinocarbonyl)-7-oxo-1,6-diaza-bicyclo[3.2.1]oct-6-yl]ester], for which the minimum inhibitory concentration (MIC) was 2 µg/mL (≈ 3.86 µM) in experiment [1], 4 µg/mL (≈ 7.73 µM) in experiment [2] and 4 µg/mL (≈ 7.73 µM) in experiment [3]. Moreover, the IC50 in experiment [4] was found to be 79 nM; in experiment [5], 266 nM; in experiment [6], 4100 nM.
On to `O=C(Cc1ccc(O[C@H]2CCNC2)cc1F)NNC(=O)[C@@H]1CC[C@@H]2CN1C(=O)N2OS(=O)(=O)O` [Example 47, (2S,5R)-sulfuric acid mono-[2-(N′-{2-[2-fluoro-4-((S)-pyrrolidin-3-oxy)-phenyl]-acetyl}-hydrazinocarbonyl)-7-oxo-1,6-diaza-bicyclo[3.2.1]oct-6-yl]ester], for which the MIC in experiment [1] is 1 µg/mL (≈ 1.99 µM); in experiment [2], 2 µg/mL (≈ 3.99 µM); in experiment [3], 0.5 µg/mL (≈ 0.997 µM). The IC50 in experiment [4] was found to be 15.1 nM; in experiment [5], 77 nM; in experiment [6] it was 842 nM.
Take `C[C@@H](N)COc1ccc(CC(=O)NNC(=O)[C@@H]2CC[C@@H]3CN2C(=O)N3OS(=O)(=O)O)cc1` [Example 49, (2S,5R)-sulfuric acid mono-[2-(N′-{2-[4-((R)-2-amino-propoxy)-phenyl]-acetyl}-hydrazinocarbonyl)-7-oxo-1,6-diaza-bicyclo[3.2.1]oct-6-yl]ester]: the MIC is 0.5 µg/mL (≈ 1.06 µM) in experiment [1], 1 µg/mL (≈ 2.12 µM) in experiment [2] and 0.5 µg/mL (≈ 1.06 µM) in experiment [3]. Moreover, the results for the concentration for half-maximal inhibition (IC50) in experiment [4], in experiment [5] and in experiment [6] were 112 nM, 47 nM and 542 nM, respectively.
On to `CC(C)[C@H](N)COc1ccccc1CC(=O)NNC(=O)[C@@H]1CC[C@@H]2CN1C(=O)N2OS(=O)(=O)O` [Example 50, (2S,5R)-sulfuric acid mono-[2-(N′-{2-[2-((S)-2-amino-3-methyl-butoxy)-phenyl]-acetyl}-hydrazinocarbonyl)-7-oxo-1,6-diaza-bicyclo[3.2.1]oct-6-yl]ester], for which the minimum inhibitory concentration (MIC) in experiment [1] is 16 µg/mL (≈ 32 µM); in experiment [2], > 32 µg/mL; in experiment [3], 16 µg/mL (≈ 32 µM). Also, the IC50 in experiment [4] is 79 nM; in experiment [5], 77 nM; in experiment [6] it was 1170 nM.
Take `CC(C)[C@H](N)COc1ccc(CC(=O)NNC(=O)[C@@H]2CC[C@@H]3CN2C(=O)N3OS(=O)(=O)O)cc1` [Example 54, (2S,5R)-sulfuric acid mono-[2-(N′-{2-[4-((S)-2-amino-3-methyl-butoxy)-phenyl]-acetyl}-hydrazinocarbonyl)-7-oxo-1,6-diaza-bicyclo[3.2.1]oct-6-yl]ester]: the MIC in experiment [1] was determined as 1 µg/mL (≈ 2 µM); in experiment [2], 8 µg/mL (≈ 16 µM); in experiment [3], 1 µg/mL (≈ 2 µM). Besides, the half-maximal inhibitory concentration (IC50) in experiment [4] came out at 37 nM; in experiment [5], 40 nM; in experiment [6], 625 nM.
Consider `O=C(Cc1ccccc1OC[C@@H]1CCCN1)NNC(=O)[C@@H]1CC[C@@H]2CN1C(=O)N2OS(=O)(=O)O` [Example 56, (2S,5R)-sulfuric acid mono-[2-(N′-{2-[2-((S)-pyrrolidin-2-ylmethoxy)-phenyl]-acetyl}-hydrazinocarbonyl)-7-oxo-1,6-diaza-bicyclo[3.2.1]oct-6-yl]ester], for which the MIC was determined as 8 µg/mL (≈ 16.1 µM) in experiment [1], 16 µg/mL (≈ 32.2 µM) in experiment [2] and 16 µg/mL (≈ 32.2 µM) in experiment [3]. Also, the half-inhibitory concentration (IC50) in experiment [4] is 142 nM; in experiment [5] it was 50 nM; in experiment [6], 1760 nM.
Consider `O=C(Cc1ccccc1OC[C@H]1CCCN1)NNC(=O)[C@@H]1CC[C@@H]2CN1C(=O)N2OS(=O)(=O)O` [Example 57, (2S,5R)-sulfuric acid mono-[2-(N′-{2-[2-((R)-pyrrolidin-2-ylmethoxy)-phenyl]-acetyl}-hydrazinocarbonyl)-7-oxo-1,6-diaza-bicyclo[3.2.1]oct-6-yl]ester], for which the MIC in experiment [1] came out at 2 µg/mL (≈ 4.02 µM); in experiment [2] it was 4 µg/mL (≈ 8.04 µM); in experiment [3], 2 µg/mL (≈ 4.02 µM). Further, the 50% inhibitory concentration (IC50) in experiment [4] stood at 125 nM; in experiment [5] it was 105 nM; in experiment [6], 3290 nM.
Consider `O=C(Cc1cccc(OC[C@@H]2CCCN2)c1)NNC(=O)[C@@H]1CC[C@@H]2CN1C(=O)N2OS(=O)(=O)O` [Example 58, (2S,5R)-sulfuric acid mono-[2-(N′-{2-[3-((S)-pyrrolidin-2-ylmethoxy)-phenyl]-acetyl}-hydrazinocarbonyl)-7-oxo-1,6-diaza-bicyclo[3.2.1]oct-6-yl]ester], for which the MIC in experiment [1] is 1 µg/mL (≈ 2.01 µM); in experiment [2], 2 µg/mL (≈ 4.02 µM); in experiment [3], 0.5 µg/mL (≈ 1 µM). Moreover, the concentration for half-maximal inhibition (IC50) in experiment [4] is 53 nM; in experiment [5], 37 nM; in experiment [6], 1470 nM.
Turning to `O=C(Cc1cccc(OC[C@@H]2CCNC2)c1)NNC(=O)[C@@H]1CC[C@@H]2CN1C(=O)N2OS(=O)(=O)O` [Example 60, (2S,5R)-sulfuric acid mono-[2-(N′-{2-[3-((R)-pyrrolidin-3-ylmethoxy)-phenyl]-acetyl}-hydrazinocarbonyl)-7-oxo-1,6-diaza-bicyclo[3.2.1]oct-6-yl]ester], the minimal inhibitory concentration (MIC) in experiment [1] is 1 µg/mL (≈ 2.01 µM); in experiment [2] it was 2 µg/mL (≈ 4.02 µM); in experiment [3], 1 µg/mL (≈ 2.01 µM). The IC50 turned out to be 45 nM in experiment [4], 41 nM in experiment [5] and 1280 nM in experiment [6].
As for `O=C(Cc1ccc(OC[C@@H]2CCCN2)cc1)NNC(=O)[C@@H]1CC[C@@H]2CN1C(=O)N2OS(=O)(=O)O` [Example 61, (2S,5R)-sulfuric acid mono-[2-(N′-{2-[4-((S)-pyrrolidin-2-ylmethoxy)-phenyl]-acetyl}-hydrazinocarbonyl)-7-oxo-1,6-diaza-bicyclo[3.2.1]oct-6-yl]ester], the minimal inhibitory concentration (MIC) stood at 1 µg/mL (≈ 2.01 µM) in experiment [1], 2 µg/mL (≈ 4.02 µM) in experiment [2] and 1 µg/mL (≈ 2.01 µM) in experiment [3]. Further, the half-maximal inhibitory concentration (IC50) in experiment [4] came to 71 nM; in experiment [5], 29 nM; in experiment [6] it was 690 nM.
As for `O=C(Cc1ccccc1O[C@H]1CCNC1)NNC(=O)[C@@H]1CC[C@@H]2CN1C(=O)N2OS(=O)(=O)O` [Example 63, (2S,5R)-sulfuric acid mono-[2-(N′-{2-[2-((S)-pyrrolidin-3-oxy)-phenyl]-acetyl}-hydrazinocarbonyl)-7-oxo-1,6-diaza-bicyclo[3.2.1]oct-6-yl]ester], the MIC was determined as 2 µg/mL (≈ 4.14 µM) in experiment [1], 8 µg/mL (≈ 16.5 µM) in experiment [2] and 2 µg/mL (≈ 4.14 µM) in experiment [3]. For the same molecule, the half-maximal inhibitory concentration (IC50) in experiment [4] turned out to be 79 nM; in experiment [5], 102 nM; in experiment [6], 4120 nM.

As a reminder, the MIC is the least concentration at which growth counts as inhibited. Usually IC50 stands for the concentration at which inhibition is half-maximal.

The record behind these values is US9822115B2, “Nitrogen containing compounds and their use as antibacterial agents” (WOCKHARDT LIMITED, priority 2014, dated 2017).
